Reference: patent publication US9227921B2, “Salts and polymorphs of a tetracycline compound” (Paratek Pharmaceuticals, Inc., priority 2008, dated 2016)

Legend:
[1] = Solid phase stability of amorphous Compound 1; type: physicochemical; settings: temperatures higher than 0° C. and when exposed to air
Text: Tetracycline-type antibiotic compounds have long been known to have limited stability in the solid phase freebase form. One such non-crystalline tetracycline analog compound, (4S,4AS,5AR,12AS)-4-7-Bis(dimethylamino)-9-{[(2,2-dimethylpropyl)amino]methyl}-3,10,12,12A-tetrahydroxy-1,1′-dioxo-1,4,4A,5,5A,6,11,12A-octahydrotetracene-2-carboxamide (Compound 1; MW=556.66, MF=C29H40N4O7), has limited stability in the solid phase upon exposure to air, light and/or moisture.
Specifically, Compound 1 is a yellow amorphous solid that is unstable at temperatures higher than 0° C. and when exposed to air. Compound 1 must be stored at temperatures below 0° C. with limited exposure in the solid phase to air, light and moisture. Outside of these limited exposure conditions, Compound 1 degrades to produce degradation products including air degradation products 2, 3 and 4, as well as the 4-epi-isomer 5.

[2] = Stability studies on free base Compound 1 and amorphous diHCl salt; type: physicochemical
Method: Stability studies were performed on the free base Compound 1 and an amorphous diHCl salt of Compound 1. This salt was formed by dissolving the compound in aqueous solution, adjusting the pH of the solution to approximately 4.2, followed by lyophilization. The free base degraded in less than one month at 40° C., and approximately three months at 4° C. In contrast, the diHCl salt of Compound 1 was stable for 6 months at 40° C., and for two years at room temperature (25° C.).

- solid phase stability [1]: unstable
- time in which the substance degraded ([2]; 4° C.): approximately three
- time in which the substance degraded ([2]; 40° C.): less than one
SMILES: CN(C)c1cc(CNCC(C)(C)C)c(O)c2c1C[C@H]1C[C@H]3[C@H](N(C)C)C(O)=C(C(N)=O)C(=O)[C@@]3(O)C(O)=C1C2=O [Compound 1, (4S,4AS,5AR,12AS)-4-7-Bis(dimethylamino)-9{[(2,2-dimethylpropyl)amino]methyl}-3,10,12,12A-tetrahydroxy-1,1′-dioxo-1,4,4A,5,5A,6,11,12A-octahydrotetracene-2-carboxamide]
